Experimental data from the supplement of paper PMC12137928.
Structures can show the parent of a compound that is named as a salt.

Test system: HCT116
Details: 72 h
How it was run: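 Four-parameter Hill fits gave IC50 and maximal efficacy. The data were CellTiter-Glo luminescence readings in HCT116 cells, normalized so that vehicle was 0% and positive control was -100%, with pattern correction afterwards.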

Row | IC50 cell viability (ICRF193 0 nM) [µM] | IC50 cell viability (ICRF193 200 nM) [µM] | SMILES
1 | > 45.8 | > 45.8 | O=C(NCCO[N+](=O)[O-])c1cccnc1 [Nicorandil]
2 | > 45.8 | > 45.8 | Cn1c(NCCN(CCO)CCCc2ccc([N+](=O)[O-])cc2)cc(=O)n(C)c1=O [Nifekalant]
3 | > 45.8 | > 45.8 | Cc1c(NC(=O)c2cccnc2)c(=O)n(-c2ccccc2)n1C [Nifenazone]
4 | > 45.8 | > 45.8 | O=[N+]([O-])c1ccc(/C=N/O)o1 [Nifuroxime]
5 | > 45.8 | > 45.8 | Cc1cn(-c2cc(NC(=O)c3ccc(C)c(Nc4nccc(-c5cccnc5)n4)c3)cc(C(F)(F)F)c2)cn1 [Nilotinib]
6 | > 45.8 | > 45.8 | CC1(C)NC(=O)N(c2ccc([N+](=O)[O-])c(C(F)(F)F)c2)C1=O [Nilutamide]
7 | > 45.8 | > 45.8 | COC(=O)C1=C(C#N)NC(C)=C(C(=O)OC(C)C)C1c1cccc([N+](=O)[O-])c1 (centres undefined) [Nilvadipine]
8 | > 45.8 | > 45.8 | CS(=O)(=O)Nc1ccc([N+](=O)[O-])cc1Oc1ccccc1 [Nimesulide]
9 | > 45.8 | > 45.8 | COCCOC(=O)C1=C(C)NC(C)=C(C(=O)OC(C)C)C1c1cccc([N+](=O)[O-])c1 (centres undefined) [Nimodipine]
10 | > 45.8 | > 45.8 | O=C1CCCC(=O)C1C(=O)c1ccc(C(F)(F)F)cc1[N+](=O)[O-] [Nitisinone]
11 | > 45.8 | > 45.8 | CCOC(=O)C1=C(C)NC(C)=C(C(=O)OC)C1c1cccc([N+](=O)[O-])c1 (centres undefined) [Nitrendipine]
12 | > 45.8 | > 45.8 | O=C1CN(/N=C/c2ccc([N+](=O)[O-])o2)C(=O)N1 [Nitrofurantoin]
13 | > 45.8 | > 45.8 | NC(=O)N/N=C/c1ccc([N+](=O)[O-])o1 [Nitrofurazone]
14 | > 45.8 | > 45.8 | CNC(=C[N+](=O)[O-])NCCSCc1csc(CN(C)C)n1 [Nizatidine]
15 | > 45.8 | > 45.8 | CC(=O)O[C@]1(C(C)=O)CC[C@H]2[C@@H]3C=C(C)C4=CC(=O)CC[C@@H]4[C@H]3CC[C@@]21C [Nomegestrol acetate]
16 | > 45.8 | > 45.8 | O=C(O)CCCCCCCC(=O)O [Nonanedioic acid]
17 | > 45.8 | > 45.8 | NC[C@H](O)c1ccc(O)c(O)c1 [Noradrenaline bitartrate monohydrate]
18 | > 45.8 | > 45.8 | C#C[C@]1(O)CC[C@H]2[C@@H]3CCC4=CC(=O)CC[C@@H]4[C@H]3CC[C@@]21C [Norethindrone]
19 | > 45.8 | > 45.8 | CCn1cc(C(=O)O)c(=O)c2cc(F)c(N3CCNCC3)cc21 [Norfloxacin]
20 | > 45.8 | > 45.8 | C#C[C@]1(O)CC[C@H]2[C@@H]3CCC4=CC(=NO)CC[C@@H]4[C@H]3CC[C@@]21CC [Norgestimate metabolite Norelgestromin]
21 | > 45.8 | > 45.8 | C#CC1(O)CC[C@H]2[C@@H]3CCC4=CC(=O)CC[C@@H]4[C@H]3CC[C@@]21CC (some centres undefined) [Norgestrel]
22 | > 45.8 | > 45.8 | COc1ccc2c(c1OC)C(=O)O[C@@H]2[C@H]1c2c(cc3c(c2OC)OCO3)CCN1C [Noscapine]
23 | > 45.8 | > 45.8 | CO[C@@H]1[C@@H](OC(N)=O)[C@@H](O)[C@H](Oc2ccc3c(O)c(NC(=O)c4ccc(O)c(CC=C(C)C)c4)c(=O)oc3c2C)OC1(C)C [Novobiocin sodium]
24 | > 45.8 | > 45.8 | NCCC[C@H](NC(=O)[C@@H]1CCCN1C(=O)[C@@H]1CSSC[C@H](N)C(=O)N[C@@H](Cc2ccc(O)cc2)C(=O)N[C@@H](Cc2ccccc2)C(=O)N[C@@H](CCC(N)=O)C(=O)N[C@@H](CC(N)=O)C(=O)N1)C(=O)NCC(N)=O [ORNIPRESSIN]
25 | > 45.8 | > 45.8 | NCCC[C@H](N)C(=O)O [ORNITHINE HYDROCHLORIDE]
26 | > 45.8 | > 45.8 | CN1CCCN=C1/C=C/c1cccc(O)c1 [OXANTEL PAMOATE]
27 | > 45.8 | > 45.8 | CNc1ncc(-c2ccc3c(=O)c(C(=O)O)cn(C4CC4)c3c2C)cc1C [OZENOXACIN]

Row | IC50 cell viability (ICRF193 0 nM) [µM] | IC50 cell viability (ICRF193 200 nM) [µM] | SMILES
28 | > 45.8 | > 45.8 | CC1CC(=O)NN=C1c1ccc(NCC(C)(C)NCC(O)COc2cc(Cl)ccc2C#N)cc1 (centres undefined) [Oberadilol]
29 | > 45.8 | > 45.8 | CNS(=O)(=O)C[C@H]1CC[C@H](N(C)c2[nH]cnc3nccc2-3)CC1 [Oclacitinib]
30 | > 45.8 | > 45.8 | CCCCCCCCCCCCCCCCCC(=O)OCC(C)O (centres undefined) [Octadecanoic acid, monoester with 1,2-propanediol]
31 | > 45.8 | > 45.8 | CCCCCCCCCCCCCCCCCC(=O)O [Octadecanoic acid]
32 | > 45.8 | > 45.8 | CCCCCCCC(=O)O [Octanoic acid]
33 | > 45.8 | > 45.8 | CCCCC(CC)COC(=O)C=Cc1ccc(OC)cc1 (centres undefined) [Octinoxate]
34 | > 45.8 | > 45.8 | CCCCC(CC)COC(=O)C(C#N)=C(c1ccccc1)c1ccccc1 (centres undefined) [Octocrylene]
35 | > 45.8 | > 45.8 | COC(=O)CCCCC(CCSS/C(CCO)=C(/C)N(C=O)Cc1cnc(C)nc1N)SC(C)=O (centres undefined) [Octotiamine]
36 | > 45.8 | > 45.8 | C[C@@H](O)[C@@H]1NC(=O)[C@H](CCCCN)NC(=O)[C@@H](Cc2c[nH]c3ccccc23)NC(=O)[C@H](Cc2ccccc2)NC(=O)[C@@H](NC(=O)[C@H](N)Cc2ccccc2)CSSC[C@@H](C(=O)N[C@H](CO)[C@@H](C)O)NC1=O [Octreotide acetate]
37 | > 45.8 | > 45.8 | Cc1cc2c(s1)Nc1ccccc1N=C2N1CCN(C)CC1 [Olanzapine]
38 | > 45.8 | > 45.8 | O=C(c1cc(Cc2n[nH]c(=O)c3ccccc23)ccc1F)N1CCN(C(=O)C2CC2)CC1 [Olaparib]
39 | > 45.8 | > 45.8 | CCCc1nc(C(C)(C)O)c(C(=O)OCc2oc(=O)oc2C)n1Cc1ccc(-c2ccccc2-c2nnn[nH]2)cc1 [Olmesartan medoxomil]
40 | > 45.8 | > 45.8 | CCCc1nc(C(C)(C)O)c(C(=O)O)n1Cc1ccc(-c2ccccc2-c2nnn[nH]2)cc1 [Olmesartan]
41 | > 45.8 | > 45.8 | COc1ccc(CC(C)(C)NC[C@H](O)c2cc(O)cc3c2OCC(=O)N3)cc1 [Olodaterol]
42 | > 45.8 | > 45.8 | CN(C)CC/C=C1/c2ccccc2COc2ccc(CC(=O)O)cc21 [Olopatadine hydrochloride]
43 | > 45.8 | > 45.8 | Cc1[nH]c(=O)c(C#N)cc1-c1ccc2nccn2c1 [Olprinone]
44 | > 45.8 | > 45.8 | O=C(O)c1cc(/N=N/c2ccc(O)c(C(=O)O)c2)ccc1O [Olsalazine sodium]
45 | > 45.8 | > 45.8 | COC(=O)N[C@H](C(=O)N1CCC[C@H]1C(=O)Nc1ccc([C@@H]2CC[C@@H](c3ccc(NC(=O)[C@@H]4CCCN4C(=O)[C@@H](NC(=O)OC)C(C)C)cc3)N2c2ccc(C(C)(C)C)cc2)cc1)C(C)C [Ombitasvir]
46 | > 45.8 | > 45.8 | COc1ccc2[nH]c([S+]([O-])Cc3ncc(C)c(OC)c3C)nc2c1 (centres undefined) [Omeprazole]
47 | > 45.8 | > 45.8 | Cc1nccn1CC1CCc2c(c3ccccc3n2C)C1=O (centres undefined) [Ondansetron]
48 | > 45.8 | > 45.8 | OCCN1CCN(CCCN2c3ccccc3C=Cc3ccccc32)CC1 [Opipramol dihydrochloride]
49 | > 45.8 | > 45.8 | C[C@@H]1CN(c2c(F)c(F)c3c(=O)c(C(=O)O)cn(C4CC4)c3c2F)C[C@H](C)N1 [Orbifloxacin]
50 | > 45.8 | > 45.8 | CCCCCCCCCCC[C@@H](C[C@@H]1OC(=O)[C@H]1CCCCCC)OC(=O)[C@H](CC(C)C)NC=O [Orlistat]
51 | > 45.8 | > 45.8 | COc1cc(C)c(Cc2cnc(N)nc2N)cc1OC [Ormetoprim]
52 | > 45.8 | > 45.8 | O=C(O)c1cc(=O)[nH]c(=O)[nH]1 [Orotic acid]
53 | > 45.8 | > 45.8 | Cc1ccccc1C(OCCN(C)C)c1ccccc1 (centres undefined) [Orphenadrine dihydrogen citrate]

Row | SMILES | IC50 cell viability (ICRF193 0 nM) [µM] | IC50 cell viability (ICRF193 200 nM) [µM]
54 | Cc1ncc(CNC(=O)N(CCCl)N=O)c(N)n1 [Nimustine] | > 45.8 | > 45.8
55 | O=[N+]([O-])c1ccc([As](=O)(O)O)cc1 [Nitarsone] | > 45.8 | > 45.8
56 | O=[N+]([O-])c1ccccc1 [Nitrobenzene] | > 45.8 | > 45.8
57 | NC(=O)c1cc([N+](=O)[O-])cc([N+](=O)[O-])c1 [Nitromide] | > 45.8 | > 45.8
58 | CCN(CC)Cc1nccn1-c1ccc([N+](=O)[O-])cc1C(=O)c1ccccc1Cl [Nizofenone] | > 45.8 | > 45.8
59 | CCCCCCCCC(=O)NCc1ccc(O)c(OC)c1 [Nonivamide] | > 45.8 | > 45.8
60 | CCC(=O)C(CCN(C)C)(c1ccccc1)c1ccccc1 [Normethadone] | > 45.8 | > 45.8
61 | NCC(O)c1cccc(O)c1 (centres undefined) [Norphenylephrine hydrochloride] | > 45.8 | > 45.8
62 | NCC(O)c1ccc(O)cc1 (centres undefined) [Octopamine] | > 45.8 | > 45.8
